Laboratory results published in patent US20060258754A1, “Method of treating endothelial dysfunction, oxidative stress and related diseases” (priority 2004, published 2006).
Entries after “also recorded” stand apart in the source; their conditions may differ.

Assays:
DNA = settings: pro-oxidant potential; cited from earlier work
vascular mesenteric bed = experiment: Rat arteriolar mesenteric bed: acetylcholine-evoked decrease in perfusion pressure after 4-week oral treatment; assay type: in vivo, alloxan-diabetic male Wistar rats; settings: chronic (4-week) oral administration, highest acetyl choline concentrations, FIG. 4
Procedure: Male Wistar rats, weighing between 230-250 g, fed regular chow, with free access to water were separated in four groups (n=10/each). The first two groups, termed normoglycemic, were treated with saline (0.1 mL/100 g/12 h) by the oral route (intragastric gavage) or untreated for four weeks. The second two groups, hyperglycemic, were treated with saline (0.1 mL/100 g/12 h) or treated with D-chiro-inositol (20 mg/kg/12 h) under the same protocol. […] Diabetes was induced by a single intravenous injection of 45 mg/kg alloxan as described by Sannomiya et al., 1997 ( ). Diabetes was diagnosed 96 h after injection by blood glucose assay >200 mg/dL. All protocols were approved by the local committee and follow the Guide for the Care and Use of Laboratory Animals published by the US National Institutes of Health (NIH Publication No. 85-23, revised 1996).
The mesentery was carefully removed by cutting close to the intestinal border with a small scissors. […] The vascular bed was rapidly perfused with warm KHS (37° C.; pH 7.4; gassed with 95% O2 in 5% CO2) in an open system with a constant flow of 4 ml/min maintained with a peristaltic pump. Alterations in perfusion pressure were continuously recorded in a four-channel polygraph (Narco Biosystems, Houston, Tex., USA) by means of a pressure transducer (P23 Gould Stratham, Oxnard, Calif., USA). After a 30 minute equilibration period, phenylephrine (1 to 5 μM) was infused by means of an infusion pump at a constant rate (0.1 ml/min) in order to achieve a stable perfusion pressure (100-120 mm Hg). Dose response curves were performed with vasodilators, i.e. acetylcholine (Ach; 10^-9 to 10^-3 M). Drugs were injected as 50 μL boluses, previously shown not to effect perfusion pressure in a side arm just above the cannula in the mesenteric artery. At least 6 separate experiments were performed each in duplicate.

aortic rings = experiment: Rat aortic thoracic rings: acetylcholine relaxation after phenylephrine contraction, 4-week oral treatment; assay type: in vivo, alloxan-diabetic male Wistar rats; settings: chronic oral administration, acetylcholine 10^-7 M, FIG. 3
Procedure: Male Wistar rats, weighing between 230-250 g, fed regular chow, with free access to water were separated in four groups (n=10/each). The first two groups, termed normoglycemic, were treated with saline (0.1 mL/100 g/12 h) by the oral route (intragastric gavage) or untreated for four weeks. The second two groups, hyperglycemic, were treated with saline (0.1 mL/100 g/12 h) or treated with D-chiro-inositol (20 mg/kg/12 h) under the same protocol. […] Diabetes was induced by a single intravenous injection of 45 mg/kg alloxan as described by Sannomiya et al., 1997 ( ). Diabetes was diagnosed 96 h after injection by blood glucose assay >200 mg/dL. All protocols were approved by the local committee and follow the Guide for the Care and Use of Laboratory Animals published by the US National Institutes of Health (NIH Publication No. 85-23, revised 1996). After completion of blood pressure measurements and vascular mesenteric bed collection, animals were sacrificed by exsanguination while under anesthesia. The thoracic aorta was excised and rapidly cleansed of connective tissue in Petri dishes containing warmed and gassed (95% O2 in 5% CO2) Krebs-Henseleit solution (KHS). The aorta segment was cut in small rings (≈5 mm) and mounted horizontally in 5 mL chambers for isometric recording of tension. The resting tension was adjusted to 1 g and the tissue allowed to equilibrate for 1 hour with a 15 min washout period. Tissues were kept in KHS at 37° C., gassed with the O2, CO2 mixture and isometric recordings made with a force displacement transducer connected to a four-channel polygraph (Narco Biosystems, Houston, Tex., USA). After the equilibration period, tissues were contracted with a submaximal concentration of phenylephrine (≈60% maximal response) until two similar responses were obtained in order to ensure reproducibility of the contraction curves. […] The acetylcholine dose response curve was repeated after a 60 min washout interval. All experiments were performed in the presence of indomethecin (10 μM) and guanethidine (10 μM) to prevent the production of vasoactive prostanoids. At least 6 separate experiments will be performed each in duplicate.

[1] = test system: ROS generated by xanthine/xanthine oxidase; experiment: Superoxide assay in vitro: xanthine/xanthine oxidase, NBT reduction; assay type: biochemical; settings: low micromolar concentrations, FIG. 10
Procedure: Superoxide radicals were generated by the reaction of xanthine (1 mM) and xanthine oxidase ([…]) in air-saturated potassium phosphate buffer (pH 7.8 at 25° C.). Superoxide anions were detected by nitroblue tetrazolium (NBT—50 μM) which undergoes reduction by O2-. to its formazan. The rate of reduction was monitored spectrophotometrically at 560 nm with an Ultrospec 1000 (Pharmacia Biotech, Cambridge, England). SOD-1, by scavanging O2-. Diminishes the rate of reduction of NBT. The volume was fixed at 2 mL. Each experiment was run in duplicate.

[2] = test system: human erythrocytes and human cataractous lenses; settings: cited from earlier work
penile corpus cavernosus = experiment: Rabbit penile corpus cavernosus: relaxation to electrical field stimulation after 60 min incubation; design: species or system low dose alloxan-diabetic rabbit; settings: 1 μM, EFS 2-16 Hz, FIG. 8
Procedure: Male California rabbits, weighing 2-2.5 kg, were provided by the vivarium of the Biomedicine Institute-UFC. Diabetes was induced by intraperitoneal injection of alloxan (150 mg/kg) and only animals with plasma glucose concentration above 200 mg/dl were included in the study. Age-matched euglycemic rabbits were used as controls.
Kidneys and aortic rings were harvested from diabetic rabbits after 3 weeks of alloxan injection. The animals were sacrificed under sodium pentobarbital anesthesia (Hypnol®, 150-200 mg/kg). […]. Rabbit kidneys were obtained from male New Zealand rabbits (1-1.5 kg) after cannulation of the renal artery in situ. [Thereafter the organ is rapidly perfused with warm KHS at 37° C., pH 7.4 and gassed with 95% O2 in 5% CO2 in an open system with a constant flow adjusted to yield 1 mL/g/min and maintained by a peristaltic pump. The alterations in perfusion pressure are continuously recorded in a four-channel polygraph (Narco Biosystems, Houston, Tex., USA) by means of a pressure transducer (P23 Gould Stratham, Oxnard, Calif., USA). After a 30 minute equilibration period, phenylephrine (1 to 5 μM) is infused by means of an infusion pump at a constant rate (0.1 ml/min) in order to achieve a stable perfusion pressure (100-120 mm Hg). Concentration-response curves are performed to the vasodilators, i.e. acetylcholine (Ach; 10^-9 to 10^-3 M). Drugs are injected as a 50 μL bolus, previously shown not to effect perfusion pressure in an arm side just above the cannula in the renal artery.] Following penectomy, the corpus cavernosum was dissected in Krebs solution and cleared of the tunica albuginea and surrounding tissues. Strips (2 cm) were mounted vertically in isometric baths (5 mL) in Krebs-Henseleit solution (37° C., pH 7.4 gassed with 95% O2 in 5% CO2) enriched with indomethecin (10 μM) and guanethedine (10 μM) in order to avoid prostanoid or neuronal norandrenergic interaction. After a 60 minute period for stabilization, tissues were precontracted with 10 μM phenylephrine in order to increase the basal tonus. Thereafter, frequency response curves to transmural electrical field stimulations (EFS—square wave pulses: 10 s train; 20 V, 0.5 ms, 2-16 Hz) were performed until two stable reproducible curves were attained. Then, frequency response curves were repeated after 60 min incubation with saline or 1 μM pinitol, DCI or db-DCI in the alloxan-diabetic rabbits. They are perfused with KHS containing 1 μM D-chiro-inositol, pinitol, dibutyryl D-chiro-inositol, myo-inositol or saline for 60 min. Dose response curves for acetylcholine are then performed following prior phenylephrine vasoconstriction as described. At least 6 separate experiments were performed each in duplicate.

Molecule	oxidative DNA damage (DNA)	effect on microvascular endothelial dysfunction (vascular mesenteric bed)	effect on macrovascular endothelial dysfunction at intermediate acetylcholine concentration (aortic rings)	reduction of ROS generated by xanthine/xanthine oxidase [1]	other results
CC(=O)N[C@@H](CS)C(=O)O [N-acetylcysteine]	cause oxidative DNA damage	–	–	–	–
O=P(O)(O)O[C@H]1[C@H](OP(=O)(O)O)[C@@H](OP(=O)(O)O)[C@H](OP(=O)(O)O)[C@@H](OP(=O)(O)O)[C@H]1OP(=O)(O)O [Phytic acid, Myoinositol hexaphosphate]	does not cause oxidative DNA damage even at high concentrations	–	–	–	–
O[C@H]1[C@H](O)[C@@H](O)[C@H](O)[C@@H](O)[C@H]1O [myoinositol, reference compound]	–	perhaps slightly better than pinitol and DCI	followed by DCI, pinitol and myoinositol in descending order of effect	reduced ROS in a low micromolar concentration dependant manner	effect on microvascular endothelial dysfunction (vascular mesenteric bed; listed as myo-inositol): perhaps slightly better than pinitol and D-chiro-inositol; effect on macrovascular endothelial dysfunction at intermediate acetylcholine concentration (aortic rings; listed as myo-inositol): active at intermediate acetyl choline concentrations; reduction of ROS generated by xanthine/xanthine oxidase ([1]; listed as myo-inositol): equally effective; peroxidation effect of hydrogen peroxide [2]: decrease the peroxidation effect of hydrogen peroxide
CO[C@H]1[C@H](O)[C@@H](O)[C@@H](O)[C@H](O)[C@@H]1O [pinitol]	–	approximately equally effective	followed by DCI, pinitol and myoinositol in descending order of effect; also recorded: active at intermediate acetyl choline concentrations	equally effective; also recorded: reduced ROS in a low micromolar concentration dependant manner	restoration of vasorelaxant effect of electrical stimulation of the pudendal nerve (penile corpus cavernosus): restoration of vasorelaxant effect
O=c1c(O)c(-c2ccc(O)c(O)c2)oc2cc(O)cc(O)c12 [quercetin]	cause oxidative DNA damage	–	–	–	–
Vitamin A	cause oxidative DNA damage	–	–	–	–
